Earlier results as cited in patent US11129842B2, “Methods and compositions for treating diseases related to imbalance of essential fatty acids” (BODYBIO INC., priority 2018, dated 2021).

How the values were obtained:
CB1 cannabinoid receptor = CB1 cannabinoid receptor (Homo sapiens, UniProt P21554)
CB2 receptor = CB2 receptor (Homo sapiens, UniProt P34972)
CB2 receptor, sequence (P34972 whole entry): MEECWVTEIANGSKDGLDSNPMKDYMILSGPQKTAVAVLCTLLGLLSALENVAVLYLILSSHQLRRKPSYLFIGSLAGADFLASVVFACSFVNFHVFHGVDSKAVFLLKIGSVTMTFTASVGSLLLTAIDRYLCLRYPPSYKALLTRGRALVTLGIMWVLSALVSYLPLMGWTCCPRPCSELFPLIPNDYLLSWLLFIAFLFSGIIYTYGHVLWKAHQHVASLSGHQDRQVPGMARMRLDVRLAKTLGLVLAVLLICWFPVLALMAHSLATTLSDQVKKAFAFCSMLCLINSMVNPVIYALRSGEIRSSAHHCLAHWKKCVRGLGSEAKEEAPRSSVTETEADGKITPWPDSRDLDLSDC

CB1 cannabinoid receptor, sequence (P21554 whole entry): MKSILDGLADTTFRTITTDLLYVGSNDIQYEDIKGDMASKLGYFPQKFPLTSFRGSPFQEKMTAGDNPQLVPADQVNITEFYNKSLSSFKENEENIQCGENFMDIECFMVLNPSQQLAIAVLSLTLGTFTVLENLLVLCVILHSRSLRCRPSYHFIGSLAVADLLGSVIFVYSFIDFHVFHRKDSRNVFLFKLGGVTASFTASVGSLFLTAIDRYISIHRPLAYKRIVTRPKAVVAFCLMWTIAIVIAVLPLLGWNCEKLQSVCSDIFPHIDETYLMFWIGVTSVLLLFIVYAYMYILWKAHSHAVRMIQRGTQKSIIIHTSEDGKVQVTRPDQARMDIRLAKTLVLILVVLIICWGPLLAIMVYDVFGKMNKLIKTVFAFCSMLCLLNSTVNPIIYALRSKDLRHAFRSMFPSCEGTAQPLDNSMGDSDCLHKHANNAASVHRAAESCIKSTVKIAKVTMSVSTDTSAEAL

Q: With `CCCCC/C=C\C/C=C\C/C=C\C/C=C\CCCCOC(CO)CO` [Noladin ether, 2-arachidonyl glyceryl ether] as the molecule, how does the Ki (CB1 cannabinoid receptor) read?
A: 21.2 nM

Q: What about the “binding to the CB2 receptor” value (CB2 receptor) of the same molecule?
A: only weakly
